Results published in patent US20250145641A1, “FUSED BICYCLIC DERIVATIVE, PHARMACEUTICALLY ACCEPTABLE SALT, CRYSTAL FORM THEREOF AND PREPARATION METHOD THEREFOR” (JIANGSU HENGRUI PHARMACEUTICALS CO., LTD., priority 2021, published 2025).

Key:
Type in all cases: physicochemical
[1] = Hygroscopicity study (dynamic vapor sorption); conditions: DVS, 25° C.; for Crystal form after hygroscopicity test: two cycles
Experimental: DVS is dynamic vapor sorption: The detection was carried out using SMS DVS Advantage at 25° C. with a humidity change of 50%-95%-0%-95%-50% in steps of 10% (the last step was 5%) (the specific range of humidity was subject to the corresponding pattern, and most methods were listed here), and the judgment standard was that dm/dt was not greater than 0.002%.
Using Surface Measurement Systems advantage 2, starting at a humidity of 50% at 25° C., the humidity range was 0%-95%, the step was 10%, the judgment standard was that the mass change dM/dT of each gradient was less than 0.002%, the running time TMAX of each humidity gradient was 360 min, with two cycles, and the specific results are shown in Table 8.

[2] = Stability of crystal form, influencing factor experiment; conditions: for physical and chemical stability (conclusion): illumination, 40° C. and 60° C., humidity 75% and 92.5%
Experimental: The crystal form A of hydrochloride, the crystal form A of methanesulfonate, and the crystal form α of the acetate were placed flat and left open. The stability of the samples was investigated under conditions of illumination (4500 Lux), high temperature (40° C., 60° C.), and high humidity (RH 75%, RH 92.5%), and the sampling investigation period was 30 days.

[3] = Long-term/accelerated stability study; conditions: for physical and chemical stability (conclusion): 25° C./60 RH and 40° C./75 RH, 6 months
Experimental: The crystal form A of hydrochloride, the crystal form A of methanesulfonate, and the crystal form α of acetate were placed at 25° C./60% RH and 40° C./75% RH to investigate the stability, and the results are shown in Tables 10, 11, and 12 below.

With CC(C)NCC(C(=O)N1C2CCC1CN(c1ncnc3c1C(C)(C)C(=O)N3)C2)c1ccc(Cl)cc1.Cl (stereo not drawn) [Crystal form A of hydrochloride] the “mass change 0% RH-80.0% RH” value [1] was 0.60%, the “mass change 0.0% RH-95.0% RH” value [1] was 0.79% and the “Crystal form after hygroscopicity test” value [1] was “Untransformed”. For the same compound, the Crystal form ([2]; 40° C., 5 days, open) was “Untransformed”, the Purity % ([2]; 40° C., 5 days, open) was 99.3% and the Crystal form ([2]; 40° C., 10 days, open) was “Untransformed”. The Purity % ([2]; 40° C., 10 days, open) was 99.3%, the Crystal form ([2]; 40° C., 30 days, open) was “Untransformed” and the Purity % ([2]; 40° C., 30 days, open) was 99.3%. The Crystal form ([2]; 60° C., 5 days, open) was “Untransformed”, the Purity % ([2]; 60° C., 5 days, open) was 99.3% and the Crystal form ([2]; 60° C., 10 days, open) was “Untransformed”. The Purity % ([2]; 60° C., 10 days, open) was 99.3%, the Crystal form ([2]; 60° C., 30 days, open) was “Untransformed” and the Purity % ([2]; 60° C., 30 days, open) was 99.2%. For the same compound, the Crystal form ([2]; 75% RH, 5 days, open) was “Untransformed”, the Purity % ([2]; 75% RH, 5 days, open) was 99.3% and the Crystal form ([2]; 75% RH, 10 days, open) was “Untransformed”. The Purity % ([2]; 75% RH, 10 days, open) was 99.3%, the Crystal form ([2]; 75% RH, 30 days, open) was “Untransformed” and the Purity % ([2]; 75% RH, 30 days, open) was 99.4%. For the same compound, the Crystal form ([2]; 92.5% RH, 5 days, open) was “Untransformed”, the Purity % ([2]; 92.5% RH, 5 days, open) was 99.3% and the Crystal form ([2]; 92.5% RH, 10 days, open) was “Untransformed”. The Purity % ([2]; 92.5% RH, 10 days, open) was 99.3%, the Crystal form ([2]; 92.5% RH, 30 days, open) was “Untransformed” and the Purity % ([2]; 92.5% RH, 30 days, open) was 99.3%. The Crystal form ([2]; 4500 Lux, 5 days, open) was “Untransformed”, the Purity % ([2]; 4500 Lux, 5 days, open) was 99.3% and the Crystal form ([2]; 4500 Lux, 10 days, open) was “Untransformed”. For the same compound, the Purity % ([2]; 4500 Lux, 10 days, open) was 99.3%, the Crystal form ([2]; 4500 Lux, 30 days, open) was “Untransformed” and the Purity % ([2]; 4500 Lux, 30 days, open) was 99.3%. For the same compound, the Purity % ([2]; Onset, 0 days) was 99.3%, the “physical and chemical stability (conclusion)” value ([2]; 30 days) was “good physical and chemical stability” and the Crystal form ([3]; 25° C./60% RH) was “Untransformed”. For the same compound, the “Purity % 1 month” value ([3]; 25° C./60% RH) was 99.3%, the “Purity % 2 month” value ([3]; 25° C./60% RH) was 99.3% and the “Purity % 3 month” value ([3]; 25° C./60% RH) was 99.2%. The “Purity % 6 month” value ([3]; 25° C./60% RH) was 99.3%, the “Purity % Onset” value ([3]; 25° C./60% RH) was 99.3% and the “physical and chemical stability (conclusion)” value [3] was “good physical and chemical stability”. For the same compound, the Crystal form ([3]; 40° C./75% RH) was “Untransformed”, the “Purity % 1 month” value ([3]; 40° C./75% RH) was 99.3% and the “Purity % 2 month” value ([3]; 40° C./75% RH) was 99.3%. For the same compound, the “Purity % 3 month” value ([3]; 40° C./75% RH) was 99.2%, the “Purity % 6 month” value ([3]; 40° C./75% RH) was 99.3% and the “Purity % Onset” value ([3]; 40° C./75% RH) was 99.3%.

With CC(C)NCC(C(=O)N1C2CCC1CN(c1ncnc3c1C(C)(C)C(=O)N3)C2)c1ccc(Cl)cc1.CS(=O)(=O)O (stereo not drawn) [Crystal form A of methanesulfonate] the “mass change 0% RH-80.0% RH” value [1] was 0.31%, the “mass change 0.0% RH-95.0% RH” value [1] was 0.43% and the “Crystal form after hygroscopicity test” value [1] was “Untransformed”. The Crystal form ([2]; 40° C., 5 days, open) was “Untransformed”, the Purity % ([2]; 40° C., 5 days, open) was 99.9% and the Crystal form ([2]; 40° C., 10 days, open) was “Untransformed”. The Purity % ([2]; 40° C., 10 days, open) was 99.9%, the Crystal form ([2]; 40° C., 30 days, open) was “Untransformed” and the Purity % ([2]; 40° C., 30 days, open) was 99.9%. The Crystal form ([2]; 60° C., 5 days, open) was “Untransformed”, the Purity % ([2]; 60° C., 5 days, open) was 99.9% and the Crystal form ([2]; 60° C., 10 days, open) was “Untransformed”. For the same compound, the Purity % ([2]; 60° C., 10 days, open) was 99.9%, the Crystal form ([2]; 60° C., 30 days, open) was “Untransformed” and the Purity % ([2]; 60° C., 30 days, open) was 99.9%. The Crystal form ([2]; 75% RH, 5 days, open) was “Untransformed”, the Purity % ([2]; 75% RH, 5 days, open) was 99.9% and the Crystal form ([2]; 75% RH, 10 days, open) was “Untransformed”. The Purity % ([2]; 75% RH, 10 days, open) was 99.9%, the Crystal form ([2]; 75% RH, 30 days, open) was “Untransformed” and the Purity % ([2]; 75% RH, 30 days, open) was 99.9%. For the same compound, the Crystal form ([2]; 92.5% RH, 5 days, open) was “Untransformed”, the Purity % ([2]; 92.5% RH, 5 days, open) was 99.9% and the Crystal form ([2]; 92.5% RH, 10 days, open) was “Untransformed”. The Purity % ([2]; 92.5% RH, 10 days, open) was 99.9%, the Crystal form ([2]; 92.5% RH, 30 days, open) was “Untransformed” and the Purity % ([2]; 92.5% RH, 30 days, open) was 99.9%. For the same compound, the Crystal form ([2]; 4500 Lux, 5 days, open) was “Untransformed”, the Purity % ([2]; 4500 Lux, 5 days, open) was 99.9% and the Crystal form ([2]; 4500 Lux, 10 days, open) was “Untransformed”. For the same compound, the Purity % ([2]; 4500 Lux, 10 days, open) was 99.9%, the Crystal form ([2]; 4500 Lux, 30 days, open) was “Untransformed” and the Purity % ([2]; 4500 Lux, 30 days, open) was 99.9%. For the same compound, the Purity % ([2]; Onset, 0 days) was 99.9%, the “physical and chemical stability (conclusion)” value ([2]; 30 days) was “good physical and chemical stability” and the Crystal form ([3]; 25° C./60% RH) was “Untransformed”. For the same compound, the “Purity % 1 month” value ([3]; 25° C./60% RH) was 99.9%, the “Purity % 2 month” value ([3]; 25° C./60% RH) was 99.8% and the “Purity % 3 month” value ([3]; 25° C./60% RH) was 99.8%. For the same compound, the “Purity % 6 month” value ([3]; 25° C./60% RH) was 99.9%, the “Purity % Onset” value ([3]; 25° C./60% RH) was 99.9% and the “physical and chemical stability (conclusion)” value [3] was “good physical and chemical stability”. The Crystal form ([3]; 40° C./75% RH) was “Untransformed”, the “Purity % 1 month” value ([3]; 40° C./75% RH) was 99.9% and the “Purity % 2 month” value ([3]; 40° C./75% RH) was 99.8%. For the same compound, the “Purity % 3 month” value ([3]; 40° C./75% RH) was 99.8%, the “Purity % 6 month” value ([3]; 40° C./75% RH) was 99.8% and the “Purity % Onset” value ([3]; 40° C./75% RH) was 99.9%.

For CC(=O)O.CC(C)NCC(C(=O)N1C2CCC1CN(c1ncnc3c1C(C)(C)C(=O)N3)C2)c1ccc(Cl)cc1 (stereo not drawn) [Crystal form α of acetate], the “mass change 0% RH-80.0% RH” value [1] was 0.50%, the “mass change 0.0% RH-95.0% RH” value [1] was 0.66% and the “Crystal form after hygroscopicity test” value [1] was “Untransformed”. For the same compound, the Crystal form ([2]; 40° C., 5 days, open) was “Untransformed”, the Purity % ([2]; 40° C., 5 days, open) was 99.6% and the Crystal form ([2]; 40° C., 10 days, open) was “Untransformed”. The Purity % ([2]; 40° C., 10 days, open) was 99.6%, the Crystal form ([2]; 40° C., 30 days, open) was “Untransformed” and the Purity % ([2]; 40° C., 30 days, open) was 99.0%. For the same compound, the Crystal form ([2]; 60° C., 5 days, open) was “Untransformed”, the Purity % ([2]; 60° C., 5 days, open) was 99.6% and the Crystal form ([2]; 60° C., 10 days, open) was “Untransformed”. The Purity % ([2]; 60° C., 10 days, open) was 99.5%, the Crystal form ([2]; 60° C., 30 days, open) was “Untransformed” and the Purity % ([2]; 60° C., 30 days, open) was 98.8%. The Crystal form ([2]; 75% RH, 5 days, open) was “Untransformed”, the Purity % ([2]; 75% RH, 5 days, open) was 99.7% and the Crystal form ([2]; 75% RH, 10 days, open) was “Untransformed”. For the same compound, the Purity % ([2]; 75% RH, 10 days, open) was 99.7%, the Crystal form ([2]; 75% RH, 30 days, open) was “Untransformed” and the Purity % ([2]; 75% RH, 30 days, open) was 99.7%. The Crystal form ([2]; 92.5% RH, 5 days, open) was “Untransformed”, the Purity % ([2]; 92.5% RH, 5 days, open) was 99.7% and the Crystal form ([2]; 92.5% RH, 10 days, open) was “Untransformed”. The Purity % ([2]; 92.5% RH, 10 days, open) was 99.7%, the Crystal form ([2]; 92.5% RH, 30 days, open) was “Untransformed” and the Purity % ([2]; 92.5% RH, 30 days, open) was 99.7%. The Crystal form ([2]; 4500 Lux, 5 days, open) was “Untransformed”, the Purity % ([2]; 4500 Lux, 5 days, open) was 99.7% and the Crystal form ([2]; 4500 Lux, 10 days, open) was “Untransformed”. The Purity % ([2]; 4500 Lux, 10 days, open) was 99.7%, the Crystal form ([2]; 4500 Lux, 30 days, open) was “Untransformed” and the Purity % ([2]; 4500 Lux, 30 days, open) was 99.6%. The Purity % ([2]; Onset, 0 days) was 99.7%, the “physical and chemical stability (conclusion)” value ([2]; 30 days) was “good physical stability and good chemical stability under high humidity and illumination conditions” and the Crystal form ([3]; 25° C./60% RH) was “Untransformed”. For the same compound, the “Purity % 1 month” value ([3]; 25° C./60% RH) was 99.7%, the “Purity % 2 month” value ([3]; 25° C./60% RH) was 99.7% and the “Purity % 3 month” value ([3]; 25° C./60% RH) was 99.7%. The “Purity % 6 month” value ([3]; 25° C./60% RH) was 99.7%, the “Purity % Onset” value ([3]; 25° C./60% RH) was 99.7% and the “physical and chemical stability (conclusion)” value [3] was “good physical and chemical stability”. For the same compound, the Crystal form ([3]; 40° C./75% RH) was “Untransformed”, the “Purity % 1 month” value ([3]; 40° C./75% RH) was 99.7% and the “Purity % 2 month” value ([3]; 40° C./75% RH) was 99.6%. For the same compound, the “Purity % 3 month” value ([3]; 40° C./75% RH) was 99.6%, the “Purity % 6 month” value ([3]; 40° C./75% RH) was 99.5% and the “Purity % Onset” value ([3]; 40° C./75% RH) was 99.7%.
